Test results taken from the supplement of paper PMC10307832.

Key:
Experiment in all cases: relative viability (nuclei count vs DMSO), 5 days (fraction); higher = more cells survive
Selisistat + Navitoclax = compound: C1CC(C2=C(C1)C3=C(N2)C=CC(=C3)Cl)C(=O)N [Selisistat] + CC1(C)CCC(c2ccc(Cl)cc2)=C(CN2CCN(c3ccc(C(=O)NS(=O)(=O)c4ccc(N[C@H](CCN5CCOCC5)CSc5ccccc5)c(S(=O)(=O)C(F)(F)F)c4)cc3)CC2)C1 [Navitoclax] (partner 0.5 µM)
How it was run: (§1)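 After 5 days of treatment, lung cancer cells in 1536-well plates were fixed and stained in a single step (final 0.05% Triton X-100, 1% formaldehyde, 1 ug/ml Hoechst) and their nuclei counted on 4× images. Treatment had been applied by pin tool the day after seeding as one drug alone or as a fixed anchor-drug dose with five library-drug doses (not always all listed) in √10 steps. Relative viability is the nuclei count of treated wells divided by that of vehicle wells, and values are medians of duplicate plates.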

Selisistat + Phenformin = compound: C1CC(C2=C(C1)C3=C(N2)C=CC(=C3)Cl)C(=O)N [Selisistat] + N=C(N)NC(=N)NCCc1ccccc1 [Phenformin] (partner 250 µM)
How it was run: as §1

Serdemetan + Luminespib = compound: c1ccc2c(CCNc3ccc(Nc4ccncc4)cc3)c[nH]c2c1 [Serdemetan] + CCNC(=O)c1noc(-c2cc(C(C)C)c(O)cc2O)c1-c1ccc(CN2CCOCC2)cc1 [Luminespib] (partner 0.01 µM)
How it was run: as §1

Serdemetan + Alpelisib = compound: c1ccc2c(CCNc3ccc(Nc4ccncc4)cc3)c[nH]c2c1 [Serdemetan] + Cc1nc(NC(=O)N2CCC[C@H]2C(N)=O)sc1-c1ccnc(C(C)(C)C(F)(F)F)c1 [Alpelisib] (partner 2 µM)
How it was run: as §1

| Cell Line | relative viability (Selisistat + Navitoclax; first compound 0.4 µM) | relative viability (Selisistat + Navitoclax; first compound 1.265 µM) | relative viability (Selisistat + Navitoclax; first compound 4 µM) | relative viability (Selisistat + Navitoclax; first compound 12.65 µM) | relative viability (Selisistat + Navitoclax; first compound 40 µM) | relative viability (Selisistat + Phenformin; first compound 0.4 µM) | relative viability (Selisistat + Phenformin; first compound 1.265 µM) | relative viability (Selisistat + Phenformin; first compound 4 µM) | relative viability (Selisistat + Phenformin; first compound 12.65 µM) | relative viability (Selisistat + Phenformin; first compound 40 µM) | relative viability (Serdemetan + Luminespib; first compound 0.04 µM) | relative viability (Serdemetan + Luminespib; first compound 0.1265 µM) | relative viability (Serdemetan + Luminespib; first compound 0.4 µM) | relative viability (Serdemetan + Luminespib; first compound 1.265 µM) | relative viability (Serdemetan + Luminespib; first compound 4 µM) | relative viability (Serdemetan + Alpelisib; first compound 0.04 µM) | relative viability (Serdemetan + Alpelisib; first compound 0.1265 µM) | relative viability (Serdemetan + Alpelisib; first compound 0.4 µM) | relative viability (Serdemetan + Alpelisib; first compound 1.265 µM) | relative viability (Serdemetan + Alpelisib; first compound 4 µM) |
| --- | --- | --- | --- | --- | --- | --- | --- | --- | --- | --- | --- | --- | --- | --- | --- | --- | --- | --- | --- | --- |
| LXF-289 | 0.95 | 0.966 | 0.895 | 0.901 | 0.92 | 0.503 | 0.517 | 0.475 | 0.499 | 0.538 | 0.636 | 0.706 | 0.625 | 0.517 | 0.401 | 1.02 | 1.01 | 0.937 | 0.844 | 0.844 |
| NCI-H23 | 0.853 | 0.936 |  | 0.943 | 0.876 | 0.731 | 0.824 | 0.658 | 0.773 | 0.786 | 0.219 | 0.223 | 0.214 | 0.211 | 0.196 | 0.674 | 0.682 | 0.577 | 0.538 | 0.596 |
| NCI-H322M | 1.26 | 1.18 |  | 1.26 | 1.47 | 0.768 | 0.837 | 0.656 | 0.77 | 0.915 | 0.807 | 0.845 | 0.772 | 0.861 | 0.678 | 0.853 | 0.875 | 0.838 | 0.755 | 0.75 |
| NCI-H441 | 0.608 | 0.619 |  | 0.697 | 0.626 | 0.801 | 0.799 | 0.698 | 0.779 | 0.8 | 0.381 | 0.298 | 0.321 | 0.316 | 0.325 | 0.85 | 0.678 | 0.803 | 0.524 | 0.513 |
| NCI-H460 | 1.2 | 1.16 |  | 1.08 | 1.3 | 0.598 | 0.565 | 0.366 | 0.495 | 0.571 | 0.0305 | 0.0294 | 0.0326 | 0.0303 | 0.0264 | 0.506 | 0.415 | 0.333 | 0.171 | 0.0988 |
| NCI-H520 | 1.06 | 0.959 | 1.18 | 1.13 | 1.03 | 0.598 | 0.485 | 0.577 | 0.533 | 0.528 | 0.255 | 0.204 | 0.232 |  | 0.205 | 0.729 | 0.807 | 1.09 | 0.726 | 0.786 |
| NCI-H596 | 0.952 | 0.959 | 0.944 | 0.904 | 0.895 | 0.742 | 0.816 | 0.584 | 0.593 | 0.716 | 1.02 | 0.955 | 0.861 | 0.59 | 0.602 | 0.477 | 0.498 | 0.481 | 0.369 | 0.298 |
| NCI-H647 | 1.11 |  |  | 0.993 | 1.13 | 0.561 | 0.499 | 0.43 | 0.324 | 0.678 | 0.272 | 0.185 | 0.176 | 0.123 | 0.112 | 1.16 | 1.2 | 1.05 | 0.762 | 0.671 |
| NCI-H727 | 0.501 | 0.445 |  |  | 0.38 | 0.564 | 0.534 |  | 0.398 | 0.478 | 0.319 | 0.481 | 0.288 | 0.265 | 0.385 | 0.597 | 0.522 | 0.593 | 0.487 | 0.418 |
| NCI-H838 | 1.31 | 1.2 | 1.13 | 1.12 | 1.22 | 0.62 | 0.478 | 0.346 | 0.547 | 0.57 | 0.266 | 0.319 | 0.383 | 0.2 | 0.328 | 0.994 | 0.953 | 0.995 | 0.962 | 1.13 |
| NCI-H1355 | 1.01 | 0.887 |  | 1.03 | 1.03 | 0.488 | 0.486 | 0.433 | 0.465 | 0.462 | 0.671 | 0.667 | 0.609 | 0.353 | 0.449 | 0.952 | 0.786 | 0.752 | 0.875 | 0.774 |
| NCI-H1395 | 1.19 | 1.14 | 1.07 | 1.13 | 0.937 | 0.509 | 0.432 | 0.427 | 0.42 | 0.42 | 0.651 | 0.671 | 0.673 | 0.6 | 0.459 | 0.863 | 0.903 | 1.12 | 0.912 | 0.564 |
| NCI-H1437 | 1.13 | 1.1 | 1.1 | 1.01 | 0.919 | 0.354 | 0.317 | 0.278 | 0.29 | 0.308 | 1.11 | 1 | 1.06 | 1.02 | 0.788 | 0.936 | 1.01 | 0.896 | 0.807 | 0.802 |
| NCI-H1651 | 0.902 | 0.974 | 0.934 | 1 | 0.945 | 0.381 | 0.293 | 0.274 | 0.307 | 0.284 | 0.714 | 0.591 | 0.457 | 0.473 | 0.273 | 0.889 | 0.78 | 0.65 | 0.371 | 0.213 |
| NCI-H1666 | 1.04 | 1.04 | 0.911 | 0.77 | 0.916 | 0.514 | 0.606 | 0.582 | 0.538 | 0.529 | 1.01 | 0.992 | 1.05 | 0.869 | 0.811 | 1.22 | 1 | 0.891 | 0.794 | 0.807 |
| NCI-H1734 | 0.961 | 0.764 | 0.822 | 0.858 | 0.873 | 0.442 | 0.377 | 0.324 | 0.382 | 0.356 | 0.198 | 0.24 | 0.196 | 0.15 | 0.186 | 0.61 |  | 0.259 | 0.122 | 0.178 |
